Earlier results, collected in patent publication US9034614B2, “Method of preparing alkyl butyrate from fermented liquid using microorganisms” (priority 2010, dated 2015).
≈ marks a conversion by molar mass, not a printed value. Like-named read-outs stand apart in the source and are kept apart here.

Row | Solubility in water (stated in words) | Solubility in water | SMILES
1 | Insoluble |  | CCCCOC(=O)CCC [Butyl butyrate]
2 | Miscible |  | CCO [Ethanol, reference compound]
3 |  | 4900 µg/mL (≈ 42.2 mM) | CCCC(=O)OCC [Ethyl butyrate]
